Reference: patent publication US10040791B2, “Isoxazole derivative as mutant isocitrate dehydrogenase 1 inhibitor” (Daiichi Sankyo Company, Limited, priority 2014, dated 2018)
Structures can show the parent of a compound that is named as a salt.

How the values were obtained:
[1] = test system: HT1080 xenografted mice (IDH1R132C); test: 2-HG production inhibitory activity using HT1080 xenografted mice; type: in vivo, mouse; conditions: 2-HG production, HT1080 xenografted mice
Experimental: HT1080 xenografted mice having successfully engrafted tumors were given by oral gavage each compound at 75 mg/kg a total of three times twice a day. The compound was suspended in a vehicle solution at 7.5 mg/mL using a homogenizer. Then, the suspension was stored at −20° C., thawed immediately before the administration, and given to mice. A negative control group for the test was given a vehicle by oral gavage. The body weights of the mice were measured using an automatic balance for small animals. The dosing solution was administered at a dose of 10 mL/kg body weight.
6 hours after the final administration, each mouse was euthanized with carbon dioxide. A portion of a tumor was collected, and its weight was measured using an electronic balance. Then, the tumor was frozen on dry ice. To the frozen tumor, methanol was added in an amount of 14 times the tumor weight. The resulting tumor was homogenized with Beads shocker (Yasui Kikai Corp.) and then incubated for 15 minutes in a freezer at −20° C. After centrifugation at 15000 rpm at 4° C. for 15 minutes using a high-speed refrigerated microcentrifuge, 250 μL of methanol and 400 μL of ultrapure water were added to 150 μL of the obtained supernatant. The prepared samples were subjected to 2-HG measurement.

IDH1R132C = IDH1R132C (Homo sapiens (Human), UniProt O75874, R132C); test: Inhibitory activity against IDH1R132C enzyme (NADPH detection, WST-8); type: biochemical; conditions: 10 nM, residual NADPH detected with WST-8, read-out: Test Example 1 IDH1 R132C IC50
Experimental: After transformation of Rosetta 2 (DE3) E. coli, the expression of the protein was induced with IPTG.
While NADPH-derived fluorescence was occasionally monitored, the reaction was terminated by the addition of 5 μL of 0.5 M EDTA before consumption of NADPH. 5 μL of WST-8 reagent (Dojindo Laboratories, #CK04) was further added and mixed therewith. 15 minutes later, the absorbance at 450 nm was measured using a plate reader (PerkinElmer, Inc., EnVision). The observed absorbance value reflects the amount of residual NADPH. From the absorbance data, the enzyme inhibitory activity of each compound at each concentration was calculated and analyzed using medical statistical analysis software GraphPad Prism to calculate an IC50 value.

[2] = test system: HT-1080 cells expressing IDH1R132C; test: 2-HG production inhibitory activity using HT1080 cell; type: cell-based, human; conditions: Homo sapiens, HT-1080; 2-HG production, HT1080 cells; read-out: Test Example 3 IC50
Experimental: Then, 100 μL of growth medium B was added to each well, further 25 μL of a solution of each compound diluted to a predetermined concentration with growth medium B was added to each well, and the cells were incubated at 37° C. for 2 days under 5% CO2. […] Then, 150 μL of ultrapure water was further added to each well, and the mixture was stirred by pipetting and stored at −20° C.
The preserved solutions were thawed at room temperature.

Sequence of IDH1R132C (O75874 whole entry R132C): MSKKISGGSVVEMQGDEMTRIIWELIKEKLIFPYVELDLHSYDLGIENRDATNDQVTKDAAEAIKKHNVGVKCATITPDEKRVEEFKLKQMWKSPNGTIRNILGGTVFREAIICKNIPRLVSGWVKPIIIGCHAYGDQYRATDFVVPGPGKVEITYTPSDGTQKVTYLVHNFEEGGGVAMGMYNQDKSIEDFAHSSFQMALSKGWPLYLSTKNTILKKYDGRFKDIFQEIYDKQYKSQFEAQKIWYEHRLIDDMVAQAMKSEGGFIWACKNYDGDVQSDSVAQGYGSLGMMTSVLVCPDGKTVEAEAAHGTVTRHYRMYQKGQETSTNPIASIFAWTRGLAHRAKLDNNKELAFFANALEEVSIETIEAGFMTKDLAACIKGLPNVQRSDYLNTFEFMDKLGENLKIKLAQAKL

Compound	Test Example 5 Ratio (%) [1] [%]	IC50 (IDH1R132C) [nM]	IC50 [2] [nM]
Cc1cc(Cl)cc(Cl)c1-c1noc(C(C)(C)F)c1C(=O)n1cc(C)c2c(/C=C/C(=O)O)cccc21 [Example 172, (2E)-3-(1-{[3-(2,4-Dichloro-6-methylphenyl)-5-(2-fluoropropan-2-yl)-1,2-oxazol-4-yl]carbonyl}-3-methyl-1H-indol-4-yl)prop-2-enoic acid tert-butylamine salt]	8		
Cc1cn(C(=O)c2c(-c3c(F)cc(Cl)cc3Cl)noc2C(C)(C)F)c2cccc(/C=C/C(=O)O)c12 [Example 169, (2E)-3-(1-{[3-(2,4-Dichloro-6-fluorophenyl)-5-(2-fluoropropan-2-yl)-1,2-oxazol-4-yl]carbonyl}-3-methyl-1H-indol-4-yl)prop-2-enoic acid tert-butylamine salt]	17		
Cc1cn(C(=O)c2c(-c3c(Cl)cc(Cl)cc3Cl)noc2C2(C(=O)N(C)C)CCC2)c2cccc(/C=C/C(=O)O)c12 [Example 89, (2E)-3-(1-{[5-[1-(Dimethylcarbamoyl)cyclobutyl]-3-(2,4,6-trichlorophenyl)-1,2-oxazol-4-yl]carbonyl}-3-methyl-1H-indol-4-yl)prop-2-enoic acid]		185	37
CC1(c2onc(-c3c(Cl)cccc3Cl)c2C(=O)n2ccc3c(/C=C/C(=O)O)cccc32)COC1 [Example 75, (2E)-3-(1-{[3-(2,6-Dichlorophenyl)-5-(3-methyloxetan-3-yl)-1,2-oxazol-4-yl]carbonyl}-1H-indol-4-yl)prop-2-enoic acid]		118	138
CC(C)(C)c1onc(-c2c(Cl)cc(Cl)cc2Cl)c1C(=O)N1CCc2c(/C=C/C(=O)O)cccc21 [Example 32, (2E)-3-(1-{[5-(tert-Butyl)-3-(2,4,6-trichlorophenyl)-1,2-oxazol-4-yl]carbonyl}-2,3-dihydro-1H-indol-4-yl)prop-2-enoic acid]		176	413
CNC(C)(C)c1onc(-c2c(Cl)cc(Cl)cc2Cl)c1C(=O)n1cc(C)c2c(/C=C/C(=O)O)cccc21 [Example 84, (2E)-3-[3-Methyl-1-({5-[2-(methylamino)propan-2-yl]-3-(2,4,6-trichlorophenyl)-1,2-oxazol-4-yl]carbonyl}-1H-indol-4-yl)prop-2-enoic acid]		80	15
CC(C)(O)c1onc(-c2c(Cl)cccc2Cl)c1C(=O)n1ccc2c(/C=C/C(=O)O)cccc21 [Example 7, (2E)-3-(1-{[3-(2,6-Dichlorophenyl)-5-(2-hydroxypropan-2-yl)-1,2-oxazol-4-yl]carbonyl}-1H-indol-4-yl)prop-2-enoic acid]		152	787
C=CC(=O)N1CCC(c2onc(-c3ccc(Cl)c(F)c3Cl)c2C(=O)n2cc(C)c3c(/C=C/C(=O)O)cccc32)CC1 [Example 129]		182	10
CNC(C)(C)c1onc(-c2c(Cl)cc(Cl)cc2Cl)c1C(=O)n1cc2c3c(cccc31)/C(=C/C(=O)O)CC2 [Example 85, (2E)-[1-({5-[2-(Methylamino)propan-2-yl]-3-(2,4,6-trichlorophenyl)-1,2-oxazol-4-yl}carbonyl)-3,4-dihydrobenzo[cd]indol-5(1H)-ylidene]ethanoic acid]		99	9
Cc1cn(C(=O)c2c(-c3c(Cl)cc(Cl)cc3Cl)noc2C2(N(C)C)CC2)c2cccc(/C=C/C(=O)O)c12 [Example 82, (2E)-3-(1-{[5-[1-(Dimethylamino)cyclopropyl]-3-(2,4,6-trichlorophenyl)-1,2-oxazol-4-yl]carbonyl}-3-methyl-1H-indol-4-yl)prop-2-enoic acid]		96	10
COc1cc(Cl)cc(Cl)c1-c1noc(C(C)(C)F)c1C(=O)n1cc(C)c2c(/C=C/C(=O)O)cccc21 [Example 58, (2E)-3-(1-{[3-(2,4-Dichloro-6-methoxyphenyl)-5-(2-fluoropropan-2-yl)-1,2-oxazol-4-yl]carbonyl}-3-methyl-1H-indol-4-yl)prop-2-enoic acid]		178	295
Cc1cn(C(=O)c2c(-c3ccc(Cl)c(F)c3Cl)noc2C(C)(C)F)c2cccc(/C=C/C(=O)O)c12 [Example 17]		201	242
COC1(c2onc(-c3c(F)cc(Cl)cc3Cl)c2C(=O)n2cc3c4c(cccc42)/C(=C/C(=O)O)CC3)CCC1 [Example 15, (2E)-[1-{[3-(2,4-Dichloro-6-fluorophenyl)-5-(1-methoxycyclobutyl)-1,2-oxazol-4-yl]carbonyl}-3,4-dihydrobenzo[cd]indol-5(1H)-ylidene]ethanoic acid]		106	37
CC(C)(C)c1onc(-c2c(Cl)cccc2Cl)c1C(=O)n1ccc2c(/C=C/C(=O)O)cccc21 [Example 24, (2E)-3-(1-{[5-(tert-Butyl)-3-(2,6-dichlorophenyl)-1,2-oxazol-4-yl]carbonyl}-1H-indol-4-yl)prop-2-enoic acid]		182	255
C=CC(=O)N1CC2C(C1)C2c1onc(-c2c(Cl)cc(Cl)cc2Cl)c1C(=O)n1cc(C)c2c(/C=C/C(=O)O)cccc21 (stereo not drawn) [Example 124]		125	22
C#CC(=O)N1CC(c2onc(-c3c(Cl)cc(Cl)cc3Cl)c2C(=O)n2ccc3c(/C=C/C(=O)O)cccc32)C1 [Example 101]		189	32
CC(C)c1onc(-c2c(Cl)ccc(F)c2Cl)c1C(=O)n1ccc2c(/C=C/C(=O)O)cccc21 [Example 28, (2E)-3-(1-{[3-(2,6-Dichloro-3-fluorophenyl)-5-(propan-2-yl)-1,2-oxazol-4-yl]carbonyl}-1H-indol-4-yl)prop-2-enoic acid]		90	401
CN(C)c1onc(-c2c(Cl)cccc2Cl)c1C(=O)n1ccc2c(/C=C/C(=O)O)cccc21 [Example 133, (2E)-3-(1-{[3-(2,6-Dichlorophenyl)-5-(dimethylamino)-1,2-oxazol-4-yl]carbonyl}-1H-indol-4-yl)prop-2-enoic acid]		93	390
COC(C)(C)c1onc(-c2c(Cl)cc(Cl)cc2Cl)c1C(=O)n1ccc2c(/C=C/C(=O)O)cccc21 [Example 31, (2E)-3-(1-{[5-(2-Methoxypropan-2-yl)-3-(2,4,6-trichlorophenyl)-1,2-oxazol-4-yl]carbonyl}-1H-indol-4-yl)prop-2-enoic acid]		57	24
CN(C)C1(c2onc(-c3c(Cl)cc(Cl)cc3Cl)c2C(=O)n2cc3c4c(cccc42)/C(=C/C(=O)O)CC3)CC1 [Example 92]		80	9
C[C@@H]1CCC[C@H](C)N1c1onc(-c2c(Cl)cccc2Cl)c1C(=O)n1ccc2c(/C=C/C(=O)O)cccc21 [Example 137, (2E)-3-(1-{[3-(2,6-Dichlorophenyl)-5-(cis-2,6-dimethylpiperidin-1-yl)-1,2-oxazol-4-yl]carbonyl}-1H-indol-4-yl)prop-2-enoic acid]		189	299
CC1(c2onc(-c3c(Cl)cccc3Cl)c2C(=O)n2ccc3c(/C=C/C(=O)O)cccc32)CCO1 (stereo not drawn) [Example 77, (2E)-3-(1-{[3-(2,6-Dichlorophenyl)-5-(2-methyloxetan-2-yl)-1,2-oxazol-4-yl]carbonyl}-1H-indol-4-yl)prop-2-enoic acid]		94	428
O=C(O)/C=C/c1cccc2c1ccn2C(=O)c1c(-c2c(Cl)cccc2Cl)noc1N1CCCC1 [Example 135, (2E)-3-(1-{[3-(2,6-Dichlorophenyl)-5-(pyrrolidin-1-yl)-1,2-oxazol-4-yl]carbonyl}-1H-indol-4-yl)prop-2-enoic acid]		122	376
CC1(c2onc(-c3c(Cl)cc(Cl)cc3Cl)c2C(=O)n2ccc3c(/C=C/C(=O)O)ccnc32)COC1 [Example 9, (2E)-3-(1-{[5-(3-Methyloxetan-3-yl)-3-(2,4,6-trichlorophenyl)-1,2-oxazol-4-yl]carbonyl}-1H-pyrrolo[2,3-b]pyridin-4-yl]prop-2-enoic acid]		107	1270
C=CC(=O)N1CC(OC)(c2onc(-c3c(Cl)cc(Cl)cc3Cl)c2C(=O)n2ccc3c(/C=C/C(=O)O)cccc32)C1 [Example 97]		164	162
